Test results: patent US20230310540A1, “PEPTIDE COMPOSITIONS AND METHODS OF USE THEREOF” (priority 2020, published 2023)
≈ marks a conversion by molar mass, not a printed value. Square brackets hold non-standard residues; d marks the D form. Peptide text beside a SMILES is read from it. d(hArg) = N=C(N)NCCCC[C@@H](N)C(=O)O

Experiments:
Format in all cases: cell-based
human RBCs = test: Hemolysis of human RBCs
Description: (§1) Peptide variants of D-CONGA (SEQ ID NO: 1) were tested for activity against E. coli, K. pneumoniae, and S. aureus. Minimum Inhibitory Concentrations (MIC) were measured in 96-well plates by broth dilution. Peptides were serially diluted in buffer or in buffer containing 1×10^9 human RBC/ml. Following 1 hr. incubation, bacteria in growth media were added and the plates were incubated overnight at 37° C. Sterilized, wells were identified to determine MIC. Hemolysis was measured by incubating 1×10^8 human RBCs with serially diluted peptide for 30 minutes followed by centrifugation of the cells and measurements of the released hemoglobin in the supernatant by absorbance at 410 nm. The value for 100% hemolysis was established by treatment with the detergent Triton-X100. Toxicity was measured by incubating serially diluted peptide with WI38 human fibroblast cells in the presence of SYTOX Green, a DNA binding dye that reports on cell death by membrane permeabilization. The peptide concentration that gives 50% cytotoxicity by relative SYTOX Green fluorescence, is denoted EC50.
Peptide was serially diluted in PBS starting at a concentration of 100 μM. The final volume of peptide in each well was 50 μL. To each well, 50 μL of RBCs in PBS at 2×10^8 cells/mL was added. As a positive lysis control, 1% triton was used. The mixtures were incubated at 37° C. for 1 hour, after which they were centrifuged at 1000 g for 5 minutes. After centrifugation, 10 μL of supernatant was transferred to 90 μL of DI H2O in a fresh 96-well plate. The absorbance of released hemoglobin at 410 nm was recorded and the fractional hemolysis was calculated based on the 100% and 0% lysis controls.
(§2) MIC values were reported in μM peptide against gram-negative E. coli (EC), P. aeruginosa (PA), and gram-positive S. aureus (SA). The two columns under each organism are for assays performed in the absence (−) and presence (+) of 1×10^9 human RBC/ml. “>30” means that sterilization was not observed at 30 μM, the highest concentration tested. The column marked “hemolysis” is the fractional hemolysis of 1×10^8 human RBC/ml at 100 μM peptide determined from measurements of serially diluted peptide, starting from 100 μM. The column marked “EC 50” contains the concentration of peptide that kills 50% of WI-38 human fibroblast cells assayed by entry of SYTOX™ Green DNA binding dye.

E. coli = details: for MIC in Broth Dilution, E. coli, RBC −: absence of RBC; for MIC in Broth Dilution, E. coli, RBC − / MIC in Broth Dilution, E. coli, RBC +: Table 3; for MIC, E. coli, No RBC / MIC, E. coli, 10^9 cells/ml RBC: Table 2; for MIC in Broth Dilution, E. coli, RBC +: presence of 1×10^9 human RBC/ml; for MIC, E. coli, 10^9 cells/ml RBC: with 10^9 human RBC/ml
Description: as §1
(§3) Antimicrobial peptides and conventional antibiotics were prepared at 5-times the final concentration needed in 0.025% acetic acid. The antibiotics were serially diluted by a factor of 2:3 horizontally across 96-well plates from Corning, 25 μL per well. One column was reserved for controls. For the assays performed in the presence of RBC, type O+ human RBCs at 0 or 2.5×10^9 cells/mL were added in 50 μL aliquots to all wells. Following a 30-minute incubation, 50 μL of TSB, inoculated with 5×10^5 CFU/mL, was added to all wells, and plates were incubated overnight at 37° C. Following overnight incubation at 37° C., the OD600 was measured (values of less than 0.1 were considered sterilized). To assess bacterial growth in the assays with RBC, the OD600 was measured after a second day inoculation with 10 μL of solution from the original plate added to 100 μL of sterile TSB followed by overnight incubation.
as §2

S. aureus = details: for MIC in Broth Dilution, S. Aureus, RBC −: absence of RBC; for MIC in Broth Dilution, S. Aureus, RBC − / MIC in Broth Dilution, S. Aureus, RBC +: Table 3; for MIC, S. aureus, No RBC / MIC, S. aureus, 10^9 cells/ml RBC: Table 2; for MIC in Broth Dilution, S. Aureus, RBC +: presence of 1×10^9 human RBC/ml; for MIC, S. aureus, 10^9 cells/ml RBC: with 10^9 human RBC/ml
Description: as §1, §3, §2

SMILES	Hemolysis at 100 μM (human RBCs)	MIC in Broth Dilution, E. coli, RBC − (E. coli) [µM]	MIC, E. coli, No RBC (E. coli) [µM]	MIC in Broth Dilution, E. coli, RBC + (E. coli) [µM]	MIC, E. coli, 10^9 cells/ml RBC (E. coli) [μM]	MIC in Broth Dilution, S. Aureus, RBC − (S. aureus) [µM]	MIC, S. aureus, No RBC (S. aureus) [µM]	MIC in Broth Dilution, S. Aureus, RBC + (S. aureus) [µM]	MIC, S. aureus, 10^9 cells/ml RBC (S. aureus) [μM]
CC(C)C[C@@H](NC(=O)[C@@H](CCCNC(=N)N)NC(=O)[C@H](CCCNC(=N)N)NC(=O)[C@@H](C)NC(=O)[C@@H](Cc1c[nH]c2ccccc12)NC(=O)[C@@H](CCCNC(=N)N)NC(=O)[C@H](N)CCCNC(=N)N)C(=O)N[C@H](C)C(=O)N[C@H](Cc1ccccc1)C(=O)N[C@@H](C)C(=O)N[C@H](Cc1ccccc1)C(=O)N[C@H](CCCNC(=N)N)C(=O)N[C@H](CCCNC(=N)N)C(N)=O [D-CONGA-L(R5, A10), rrwaRrlafAfrr] (H-[dR][dR][dW][dA]R[dR][dL][dA][dF]A[dF][dR][dR]-NH2)	0.04	1.4 (≈ 2.47 µg/mL)	1.4 (≈ 2.47 µg/mL)	1.4	1.4	>30	30 (≈ 52.8 µg/mL)	>30	30
CC(C)C[C@@H](NC(=O)CNC(=O)[C@@H](CCCNC(=N)N)NC(=O)[C@@H](CCCNC(=N)N)NC(=O)[C@@H](C)NC(=O)[C@@H](Cc1c[nH]c2ccccc12)NC(=O)[C@@H](CCCNC(=N)N)NC(=O)[C@H](N)CCCNC(=N)N)C(=O)N[C@H](C)C(=O)N[C@H](Cc1ccccc1)C(=O)N[C@H](C)C(=O)N[C@H](Cc1ccccc1)C(=O)N[C@H](CCCNC(=N)N)C(=O)N[C@H](CCCNC(=N)N)C(N)=O [D-CONGA-G7, rrwarrglafafrr (All D)] (H-[dR][dR][dW][dA][dR][dR]G[dL][dA][dF][dA][dF][dR][dR]-NH2)	0.07	1.3 (≈ 2.36 µg/mL)	1.3 (≈ 2.36 µg/mL)	1.4	1.4	6.4 (≈ 11.6 µg/mL)	6.4 (≈ 11.6 µg/mL)	6.9	6.9
CC(C)C[C@@H](NC(=O)[C@@H](CCCNC(=N)N)NC(=O)[C@@H](CCCNC(=N)N)NC(=O)[C@@H](Cc1c[nH]c2ccccc12)NC(=O)[C@@H](CCCNC(=N)N)NC(=O)[C@H](N)CCCNC(=N)N)C(=O)N[C@H](C)C(=O)N[C@H](Cc1ccccc1)C(=O)N[C@H](C)C(=O)N[C@H](Cc1ccccc1)C(=O)N[C@H](CCCNC(=N)N)C(=O)N[C@H](CCCNC(=N)N)C(N)=O [D-CONGA-ΔA4, rrwrrlafafrr (All D)] (H-[dR][dR][dW][dR][dR][dL][dA][dF][dA][dF][dR][dR]-NH2)	0.02	1.6 (≈ 2.7 µg/mL)	1.6 (≈ 2.7 µg/mL)	2.8	2.8	3.2 (≈ 5.41 µg/mL)	3.2 (≈ 5.41 µg/mL)	2.3	2.3
CC(C)C[C@@H](NC(=O)[C@@H](CCCNC(=N)N)NC(=O)[C@@H](CCCNC(=N)N)NC(=O)[C@@H](C)NC(=O)[C@@H](Cc1c[nH]c2ccccc12)NC(=O)[C@@H](CCCNC(=N)N)NC(=O)[C@H](N)CCCNC(=N)N)C(=O)N[C@H](C)C(=O)N[C@H](Cc1ccccc1)C(=O)N[C@H](Cc1ccccc1)C(=O)N[C@H](CCCNC(=N)N)C(=O)N[C@H](CCCNC(=N)N)C(N)=O [D-CONGA-ΔA10, rrwarrlaffrr (All D)] (H-[dR][dR][dW][dA][dR][dR][dL][dA][dF][dF][dR][dR]-NH2)	0.02	0.7 (≈ 1.18 µg/mL)	0.7 (≈ 1.18 µg/mL)	1.3	1.3	23.5 (≈ 39.7 µg/mL)	24 (≈ 40.6 µg/mL)	19	19
CC(C)C[C@@H](NC(=O)[C@@H](CCCNC(=N)N)NC(=O)[C@H](N)CCCNC(=N)N)C(=O)N[C@H](C)C(=O)N[C@H](Cc1ccccc1)C(=O)N[C@H](C)C(=O)N[C@H](Cc1ccccc1)C(=O)N[C@H](Cc1c[nH]c2ccccc12)C(=O)N[C@H](C)C(=O)N[C@H](CCCNC(=N)N)C(=O)N[C@H](CCCNC(=N)N)C(=O)N[C@H](CCCNC(=N)N)C(=O)N[C@H](CCCNC(=N)N)C(N)=O [D-CONGA-FLIP, rrlafafwarrrr (All D)] (H-[dR][dR][dL][dA][dF][dA][dF][dW][dA][dR][dR][dR][dR]-NH2)	0.05	1 (≈ 1.76 µg/mL)	1 (≈ 1.76 µg/mL)	1.5	1.5	1.7 (≈ 2.99 µg/mL)	1.7 (≈ 2.99 µg/mL)	3.7	3.7
CC(C)C[C@@H](NC(=O)[C@@H](CCCCNC(=N)N)NC(=O)[C@@H](CCCCNC(=N)N)NC(=O)[C@@H](C)NC(=O)[C@@H](Cc1c[nH]c2ccccc12)NC(=O)[C@@H](CCCNC(=N)N)NC(=O)[C@H](N)CCCNC(=N)N)C(=O)N[C@H](C)C(=O)N[C@H](Cc1ccccc1)C(=O)N[C@H](C)C(=O)N[C@H](Cc1ccccc1)C(=O)N[C@H](CCCNC(=N)N)C(=O)N[C@H](CCCNC(=N)N)C(N)=O [D-CONGA-HomoR, rrwa (homo r, homo r)lafafrr] (H-[dR][dR][dW][dA][d(hArg)][d(hArg)][dL][dA][dF][dA][dF][dR][dR]-NH2)	0.06	1.3 (≈ 2.33 µg/mL)	1.3 (≈ 2.33 µg/mL)	2.2	2.2	1.7 (≈ 3.04 µg/mL)	1.7 (≈ 3.04 µg/mL)	2.5	2.5
CC(C)C[C@@H](NC(=O)[C@@H](CCCNC(=N)N)NC(=O)[C@@H](CCCNC(=N)N)NC(=O)[C@@H](C)NC(=O)[C@@H](Cc1c[nH]c2ccccc12)NC(=O)[C@@H](CCCNC(=N)N)NC(=O)[C@H](N)CCCNC(=N)N)C(=O)N[C@H](C)C(=O)N[C@H](Cc1ccccc1)C(=O)N[C@H](C)C(=O)N[C@H](Cc1ccccc1)C(=O)N[C@H](CCCNC(=N)N)C(N)=O [D-CONGA-ΔR13, rrwarrlafafr (All D)] (H-[dR][dR][dW][dA][dR][dR][dL][dA][dF][dA][dF][dR]-NH2)	0.03	0.9 (≈ 1.44 µg/mL)	0.9 (≈ 1.44 µg/mL)	0.6	0.6	27.1 (≈ 43.5 µg/mL)	27 (≈ 43.3 µg/mL)	>30	30
